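Five compound concentrations were applied to cells in 96-well plates for 48 hours; endpoints were derived by simple linear interpolation of the resulting dose-response curve. Abbreviation: GI50, concentration required for 50% inhibition of growth. TGI marks complete inhibition of growth.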
What was measured:
Test in all cases: inhibition of tumour cell growth, NCI panel, 48 h
NCI-H23 lung = test system: NCI-H23 lung
HS 578T breast = test system: HS 578T breast
K-562 leukemia = test system: K-562 leukemia
HOP-92 NSCLC = test system: HOP-92 NSCLC
HCC-2998 colon = test system: HCC-2998 colon
SK-OV-3 ovarian = test system: SK-OV-3 ovarian
NCI-H226 lung = test system: NCI-H226 lung
IGROV1 ovarian = test system: IGROV1 ovarian
M14 melanoma = test system: M14 melanoma
HCT-116 colon = test system: HCT-116 colon

| Structure (SMILES) | GI50 (NCI-H23 lung) [µM] | TGI (NCI-H23 lung) [µM] | GI50 (HS 578T breast) [µM] | TGI (HS 578T breast) [µM] | GI50 (K-562 leukemia) [µM] | TGI (K-562 leukemia) [µM] | GI50 (HOP-92 NSCLC) [µM] | TGI (HOP-92 NSCLC) [µM] | GI50 (HCC-2998 colon) [µM] | TGI (HCC-2998 colon) [µM] | GI50 (SK-OV-3 ovarian) [µM] | TGI (SK-OV-3 ovarian) [µM] | GI50 (NCI-H226 lung) [µM] | TGI (NCI-H226 lung) [µM] | GI50 (IGROV1 ovarian) [µM] | TGI (IGROV1 ovarian) [µM] | GI50 (M14 melanoma) [µM] | TGI (M14 melanoma) [µM] | GI50 (HCT-116 colon) [µM] | TGI (HCT-116 colon) [µM] |
| --- | --- | --- | --- | --- | --- | --- | --- | --- | --- | --- | --- | --- | --- | --- | --- | --- | --- | --- | --- | --- |
| O=C(Nc1cccc(-n2cc(-c3ccncc3)c(-c3ccc(O)c(Cl)c3)n2)c1)c1ccc2c(c1)OCCO2 | > 100 | > 100 | 6.01 | > 100 | 4.26 | > 100 | 2.26 | > 100 | > 100 | > 100 | > 100 | > 100 | 12.2 | > 100 | > 100 | > 100 | 5.83 | > 100 | 5.44 | > 100 |
| Cc1cc(C(=O)Nc2n[nH]c3ccccc23)n[nH]1 | > 100 | > 100 | > 100 | > 100 | > 100 | > 100 | > 100 | > 100 | 50.6 | > 100 | > 100 | > 100 | > 100 | > 100 | 32.7 | > 100 | > 100 | > 100 | > 100 | > 100 |
| COc1cccc(-c2nn(-c3ccccc3)cc2-c2ccnc(NCCCNC(=O)c3cccc(C(F)(F)F)c3)c2)c1 | 4.49 | 24.2 | 5.6 | 36.9 | 3.69 | 31.3 | 2.48 | 17.4 | 3.96 | 18.2 | 7.04 | 29.2 | 2.24 | 10.7 | 7.59 | 32 | 4.63 | 30.3 | 3.81 | 16.1 |
| N#Cc1cnc2cc(OC[C@@H](O)CO)c(NC(=O)C3CCCC3)cc2c1Nc1ccc(OCc2cccc(F)c2)c(Cl)c1 | 1.87 | 11.9 | 0.265 | 1.43 | – | – | 0.99 | 2.48 | 1.1 | 3.38 | 3.23 | 11.5 | 3.86 | 11.4 | – | – | 0.765 | 1.61 | 0.4 | 1.1 |
| CCCOc1cc2ccccc2cc1C(=O)Nc1nc(NC)c2c(ccc3nccc32)[nH]1 | 1.1 | 2.53 | 1.42 | 3.85 | 0.0883 | 0.912 | 1.15 | 2.51 | 1.11 | 2.41 | 0.473 | 1.78 | 1.65 | 3.8 | 1.17 | 2.71 | 0.444 | 1.98 | 0.35 | 1.24 |
| C[C@]12CC[C@@H]3c4ccc(O)cc4CC[C@H]3[C@@H]1CC[C@@H]2NS(=O)(=O)c1ccc(Br)cc1 | 3.44 | 15.5 | 2.05 | 6.15 | 3.08 | > 100 | 1.76 | 4.93 | 3.21 | 10.5 | 4.53 | 13.6 | 2.04 | 4.17 | 3.85 | 12.1 | 2.14 | 4.66 | 2.29 | 5.16 |
| O=C(O)c1cc2ccccc2c2c3c(ccc12)OCO3 | 188 | 584 | 129 | 522 | 259 | > 1000 | 18.7 | 96.5 | 225 | 763 | 236 | 739 | 123 | 818 | 201 | 738 | 179 | 493 | 262 | > 1000 |
| O=[N+]([O-])c1cccc(-c2nc(-c3ccc(Cl)cc3Cl)cn2-c2ccccc2)c1 | 5.15 | > 27.1 | 0.428 | 1.15 | > 9.26 | > 33.3 | 0.105 | 22.7 | 2.99 | > 17.6 | 3.06 | 29.9 | 3.17 | > 33.3 | 1.2 | 3.86 | 1.45 | > 14.9 | 0.855 | 2.02 |
| O=S(=O)(NCCNc1nccc(-c2c(-c3ccc(F)c(O)c3)nc3sccn23)n1)c1ccc(Cl)cc1 | 3.56 | 12.2 | 1.26 | 13.3 | – | – | 2.39 | 13.8 | 2.93 | > 50 | 2.8 | 15.9 | 1.8 | 18.4 | 1.45 | > 50 | – | – | 1.54 | > 50 |
| COc1ccc(C(C)c2cc(OC)c(OC)c(OC)c2)cc1 (stereo not given) | 0.292 | > 50 | 0.244 | > 50 | 0.0261 | > 50 | 3.6 | > 50 | 0.21 | > 50 | 0.159 | > 50 | 46.5 | > 50 | 0.278 | > 50 | – | – | – | – |
| CNCC/C=C1\c2cc3c(cc2-c2c1c1cc(OC)c(OC)cc1c(=O)n2C)OCO3 | 1.33 | 7.75 | 8.88 | 38.9 | 0.196 | – | 0.301 | 2.74 | 3.41 | 33.6 | 3.28 | 23.6 | 0.232 | 2.11 | < 0.0505 | – | 0.621 | 17 | 0.0679 | – |
| COc1cc(-n2cc(-c3ccccc3)[nH]c2=O)cc(OC)c1OC | > 100 | > 100 | 29.8 | 85.4 | 83.9 | > 100 | 20.6 | 83.1 | > 100 | > 100 | 34.3 | > 100 | 57.4 | > 100 | > 100 | > 100 | > 100 | > 100 | 58.1 | > 100 |

Reference: PubChem BioAssay (NCI)
